Assays:
Format in all cases: in vivo
“Momotaro” tomato [1] = assay: Example 3 drying stress tolerance imparting test (tomato); conditions: 3 weeks
Protocol: Other cultivation conditions were as with the conditions of the drying stress test. Drying stress conditions: soil pF value: 2.3, 2.5, or 2.9, cultivation temperature: 23° C., relative humidity: 50%, illuminance: 5000 Lux (fluorescent light), light/dark cycle: 16 hours/8 hours (2) Cultivation period: 3 weeks (3) Soil: Kureha gardening soil manufactured by Kureha Corporation (fertilizer components: N:P:K=0.4:1.9:0.6 g/kg soil) (4) Plant preparation: A 50-cell tray was filled with Kureha gardening soil manufactured by Kureha Corporation (fertilizer components: N:P:K=0.4:1.9:0.6 g/kg soil), and seeds of a “Momotaro” tomato were sowed, thinly covered with Kureha gardening soil, and sufficiently watered to allow the seeds to sprout. When the leaves in the 2-leaf stage fully unfolded, the soil on the tomato roots was carefully washed away with running water, and a test was performed. (5) The chemicals used and the amount of a treatment solution applied were as in Example 1. (6) Amount of treatment solution applied: 10 ml/specimen for leaf spraying, 50 ml/specimen for fertigation Method of Drying Stress Tolerance Imparting Test Five tomato specimens as prepared above were planted in a 60-cm planter placed on a plant culture rack in an air-conditioned room. […] From immediately after planting the tomatoes, a treatment solution of Table 1 was sprayed onto the leaves or applied to the underground portions once a week. […] Five specimens (per planter) were prepared for each of the test plot and the control plots, plant bodies were collected 3 weeks after the beginning of the test such that the roots were not cut, the soil was washed away with running water, the fresh plant body-weights were measured, and a plant stress level and an extent of imparting plant stress tolerance were calculated according to Formula (ii) and (iii) above using the average of the weights.

“Momotaro” tomato [2] = assay: Example 1 salt stress tolerance imparting test (tomato, hydroponic, Otsuka 1/2A + NaCl); conditions: NaCl 3510 ppm, leaf, 2 weeks
Protocol: (1) Salt stress-free test conditions: NaCl concentration (water potential by Nan): 0 ppm (0 MPa). Other cultivation conditions were as the same as the conditions of the drying stress test.
When the leaves in the 2-leaf stage fully unfolded, the soil on the tomato roots was carefully washed away with running water, and a test was performed.
Method of Salt Stress Tolerance Imparting Test
The environmental conditions in a climatic chamber were controlled so as to have a temperature of 23° C., an illuminance by a fluorescent light of 5000 Lux, and a daily light-dark cycle of a 16-hour light period and an 8-hour dark period. […] A treatment solution containing a compound of Table 1 in a specific concentration (the remainder was water) was prepared and sprayed onto the leaves or applied to the underground portion. In addition, a control plot to which no NaCl was added, not imposing a salt stress (this is a control plot for plant body weight 2 for Formula (ii) and is a stress-free control plot) and a control plot to which NaCl was added in various concentrations, imposing a salt stress, and to which the treatment solution was not applied (this is a control plot for plant body weight 1 for Formula (ii) and is a control plot including a salt stress) were prepared as controls. Ten specimens were prepared for each of the test plot and the control plots, and a plant stress level and an extent of imparting plant stress tolerance were calculated according to Formulas (II) above using as a fresh plant body weight the average of the fresh plant body weights of each specimen 2 weeks after the beginning of the test.

tomato = assay: Example 8 temperature stress test (tomato), soil culture; conditions: 100 ppm, 2 weeks; for Fresh weight, relative value (untreated plot = 100), Comparison 1: stress-free: tomato soil culture, cultivation temperature 23, EC 1, pF 1.7, two-leaf stage; for Fresh weight, relative value (untreated plot = 100), Test 1 / Fresh weight, relative value (untreated plot = 100), Test 2 / Fresh weight, relative value (untreated plot = 100), Test 3 / Fresh weight, relative value (untreated plot = 100), Test 4: tomato soil culture; for Fresh weight, relative value (untreated plot = 100), Test 1: cultivation temperature 10, EC 1, pF 1.7, two-leaf stage; for Fresh weight, relative value (untreated plot = 100), Test 2: cultivation temperature 16, EC 1, pF 1.7, two-leaf stage; for Fresh weight, relative value (untreated plot = 100), Test 3: cultivation temperature 29, EC 1, pF 1.7, two-leaf stage; for Fresh weight, relative value (untreated plot = 100), Test 4: cultivation temperature 35, EC 1, pF 1.7, two-leaf stage
Protocol: Other Conditions were as in Example 5. The environmental conditions in a climatic chamber were controlled so as to have an illuminance by a fluorescent light of 5000 Lux, a daily light-dark cycle of a 16-hour light period and an 8-hour dark period, and various temperatures. Tomatoes as prepared above were transplanted in size-3 (9 cm) pots. A treatment solution containing a compound of Table 1 in a specific concentration (the remainder was water) was prepared and sprayed onto the leaves or applied to the underground portions. […] A comparative example was constructed to reflect the temperature stress-free optimum cultivation conditions to investigate the plant energizing ability. […] Moreover, when the products of the present invention and the comparative products were compared, the stress tolerance imparting ability of the products of the present invention was higher in respective temperature stress conditions.

potato = assay: Example 9 drying stress test (potato), soil culture; conditions: 23° C., 100 ppm, 2 weeks; for Fresh weight, relative value (untreated plot = 100), Test 1 / Fresh weight, relative value (untreated plot = 100), Test 4 / Fresh weight, relative value (untreated plot = 100), Test 2 / Fresh weight, relative value (untreated plot = 100), Test 3: potato soil culture; for Fresh weight, relative value (untreated plot = 100), Test 1: EC 1, pF 2.8, two-leaf stage; for Fresh weight, relative value (untreated plot = 100), Test 4: EC 1, pF 3.5, five-leaf stage; for Fresh weight, relative value (untreated plot = 100), Test 2: EC 1, pF 3.5, two-leaf stage; for Fresh weight, relative value (untreated plot = 100), Test 3: EC 1, pF 4.1, two-leaf stage; for Fresh weight, relative value (untreated plot = 100), Comparison 1: stress-free: potato soil culture, EC 1, pF 1.7, two-leaf stage
Protocol: The environmental conditions in a climatic chamber were controlled so as to have a temperature of 23° C., an illuminance by a fluorescent light of 5000 Lux, and a daily light-dark cycle of a 16-hour light period and an 8-hour dark period. Potatoes as prepared above were transplanted in size-5 (15 cm) pots. During the test period, the pF value was controlled by adding a suitable amount of tap water once a day so as to attain a specific drying stress value. A treatment solution containing a compound of Table 5 in a specific concentration (the remainder was water) was prepared and sprayed onto the leaves or applied to the underground portions. […] A comparative example was constructed to reflect the drying stress-free optimum cultivation conditions to investigate the plant energizing ability. […] Moreover, when the products of the present invention and the comparative products were compared, the stress tolerance imparting ability of the products of the present invention was higher in respective drying stress conditions.

[3] = pF 2.3, leaf, 100 ppm once a week

POE (6) sorbitan monooleic acid ester [Product of present invention 10]
Extent of imparting plant stress tolerance (“Momotaro” tomato [1]; [3]): 112% | Extent of imparting plant stress tolerance (“Momotaro” tomato [2]; 100 ppm): 113%

Sucrose fatty acid ester (C16, HLB = 15) [Product of present invention 21]
Extent of imparting plant stress tolerance (“Momotaro” tomato [1]; [3]): 117% | Extent of imparting plant stress tolerance (“Momotaro” tomato [2]; 100 ppm): 114%

Sucrose fatty acid ester (C18, HLB = 11) [Product of present invention 19]
Extent of imparting plant stress tolerance (“Momotaro” tomato [1]; [3]): 115% | Extent of imparting plant stress tolerance (“Momotaro” tomato [2]; 100 ppm): 113%

Sucrose fatty acid ester (C18:1, HLB = 15) [Product of present invention 22]
Extent of imparting plant stress tolerance (“Momotaro” tomato [1]; [3]): 117% | Extent of imparting plant stress tolerance (“Momotaro” tomato [1]; pF 2.3, leaf, 200 ppm once a week): 113% | Extent of imparting plant stress tolerance (“Momotaro” tomato [2]; 200 ppm): 112%

O=C(O)[C@@H]1CCCN1 [Comparative product 2, Proline, reference compound]
Extent of imparting plant stress tolerance (“Momotaro” tomato [1]; [3]): 103% | Extent of imparting plant stress tolerance (“Momotaro” tomato [1]; pF 2.5, leaf, 100 ppm once a week): 102% | Extent of imparting plant stress tolerance (“Momotaro” tomato [1]; pF 2.9, leaf, 100 ppm once a week): 103% | Fresh weight, relative value (untreated plot = 100), Comparison 1 (tomato; leaf): 101 | Fresh weight, relative value (untreated plot = 100), Comparison 1 (tomato; underground portion): 102 | Fresh weight, relative value (untreated plot = 100), Test 1 (tomato; leaf): 100 | Fresh weight, relative value (untreated plot = 100), Test 1 (tomato; underground portion): 100 | Fresh weight, relative value (untreated plot = 100), Test 2 (tomato; leaf): 100 | Fresh weight, relative value (untreated plot = 100), Test 2 (tomato; underground portion): 100 | Fresh weight, relative value (untreated plot = 100), Test 3 (tomato; leaf): 101 | Fresh weight, relative value (untreated plot = 100), Test 3 (tomato; underground portion): 101 | Fresh weight, relative value (untreated plot = 100), Test 4 (tomato; leaf): 101 | Fresh weight, relative value (untreated plot = 100), Test 4 (tomato; underground portion): 100 | Fresh weight, relative value (untreated plot = 100), Test 1 (potato; leaf): 102 | Fresh weight, relative value (untreated plot = 100), Test 1 (potato; underground portion): 102 | Fresh weight, relative value (untreated plot = 100), Test 4 (potato; leaf): 101 | Fresh weight, relative value (untreated plot = 100), Test 4 (potato; underground portion): 100 | Fresh weight, relative value (untreated plot = 100), Test 2 (potato; leaf): 102 | Fresh weight, relative value (untreated plot = 100), Test 2 (potato; underground portion): 102 | Fresh weight, relative value (untreated plot = 100), Test 3 (potato; leaf): 101 | Fresh weight, relative value (untreated plot = 100), Test 3 (potato; underground portion): 101 | Fresh weight, relative value (untreated plot = 100), Comparison 1 (potato; leaf): 101 | Fresh weight, relative value (untreated plot = 100), Comparison 1 (potato; underground portion): 102

POE (20) sorbitan monostearic acid ester [Product of present invention 14]
Extent of imparting plant stress tolerance (“Momotaro” tomato [1]; [3]): 115% | Extent of imparting plant stress tolerance (“Momotaro” tomato [2]; 100 ppm): 116%

Sorbitan monooleic acid ester [Product of present invention 11]
Extent of imparting plant stress tolerance (“Momotaro” tomato [1]; [3]): 112% | Extent of imparting plant stress tolerance (“Momotaro” tomato [2]; 100 ppm): 112%

POE (20) sorbitan monopalmitic acid ester [Product of present invention 13]
Extent of imparting plant stress tolerance (“Momotaro” tomato [1]; [3]): 116% | Extent of imparting plant stress tolerance (“Momotaro” tomato [2]; 100 ppm): 117%

OC[C@H]1O[C@H](OC[C@H]2O[C@H](O[C@]3(CO)O[C@H](CO)[C@@H](O)[C@@H]3O)[C@H](O)[C@@H](O)[C@@H]2O)[C@H](O)[C@@H](O)[C@H]1O [Comparative product 4, Raffinose, reference compound]
Extent of imparting plant stress tolerance (“Momotaro” tomato [1]; [3]): 102% | Fresh weight, relative value (untreated plot = 100), Comparison 1 (tomato; leaf): 102 | Fresh weight, relative value (untreated plot = 100), Test 1 (tomato; leaf): 100 | Fresh weight, relative value (untreated plot = 100), Test 2 (tomato; leaf): 100 | Fresh weight, relative value (untreated plot = 100), Test 3 (tomato; leaf): 101 | Fresh weight, relative value (untreated plot = 100), Test 4 (tomato; leaf): 101 | Fresh weight, relative value (untreated plot = 100), Test 1 (potato; leaf): 103 | Fresh weight, relative value (untreated plot = 100), Test 4 (potato; leaf): 101 | Fresh weight, relative value (untreated plot = 100), Test 2 (potato; leaf): 103 | Fresh weight, relative value (untreated plot = 100), Test 3 (potato; leaf): 103 | Fresh weight, relative value (untreated plot = 100), Comparison 1 (potato; leaf): 102

Alkyl (C12-14) polyglycoside [Product of present invention 16]
Extent of imparting plant stress tolerance (“Momotaro” tomato [1]; [3]): 118% | Extent of imparting plant stress tolerance (“Momotaro” tomato [2]; 100 ppm): 115% | Fresh weight, relative value (untreated plot = 100), Test 1 (potato; leaf): 120 | Fresh weight, relative value (untreated plot = 100), Test 4 (potato; leaf): 132 | Fresh weight, relative value (untreated plot = 100), Test 2 (potato; leaf): 140 | Fresh weight, relative value (untreated plot = 100), Test 3 (potato; leaf): 120 | Fresh weight, relative value (untreated plot = 100), Comparison 1 (potato; leaf): 101

Sucrose fatty acid ester (C18, HLB = 9) [Product of present invention 18]
Extent of imparting plant stress tolerance (“Momotaro” tomato [1]; [3]): 113% | Extent of imparting plant stress tolerance (“Momotaro” tomato [2]; 100 ppm): 112%

From patent US20110100079A1, “METHOD FOR IMPARTING STRESS TOLERANCE TO PLANT” (priority 2007, published 2011)
